Where two headings read alike, the source gives them in different places.
Columns and labels:
SCLC strain SHP-77 = assay: MTT assay for cell survival, SCLC SHP-77 in vitro; type: cell-based, human; conditions: ED50 for killing of SCLC strain SHP-77 in vitro, 4 days, 0 = no detectable activity
PC3 PC cells = assay: Inhibition of PC3 tumor growth in vivo in nude mice; parameters: species or system athymic nude mice; key to PC3 In vivo % inhib.: an IC50 value of “0” represents no detectable anti-cancer activity for a drug in a given cell line; “Stim.” indicates the observation of a stimulatory activity on the growth of the cancer cell line; conditions: for PC3 In vivo % inhib.: percent inhibition of tumor growth in nude mice, prostate cancer, i.p. 5 mg/kg/every second day or 10 mg/kg/every fourth day
Outline: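 Groups of 5 nude mice dosed i.p. at 10 mg/kg every fourth day or 5 mg/kg every second day, beginning 8 days after s.c. implantation of PC3 (1.5 million), A549 (1 million) or SHP-77 (2 million) cells in Matrigel; saline or DMSO-matched controls. Tumor weight at necropsy and caliper-derived volume both used to calculate inhibition.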

A549 NSCLC cells = assay: Inhibition of A-549 tumor growth in vivo in nude mice; parameters: species or system athymic nude mice; key: an IC50 value of “0” represents no detectable anti-cancer activity for a drug in a given cell line; “Stim.” indicates the observation of a stimulatory activity on the growth of the cancer cell line; conditions: percent inhibition of tumor growth in nude mice; i.p. 5 mg/kg/every second day or 10 mg/kg/every fourth day
Experimental: (§1) Compounds having high in vitro cytotoxic activity were tested against implanted tumors in vivo. Athymic nude mice were implanted subcutaneously with suspensions (2 million SHP-77 SCLC cells, 1 million A549 NSCLC cells or 1.5 million PC3 PC cells) in Matrigel suspension. On the eighth day after tumor implantation groups of 5 mice bearing implants were injected intraperitoneally with the compounds being tested at 5 mg/kg/every second day or at 10 mg/kg/every fourth day; control animals were injected with an equal volume of isotonic saline. Less soluble compounds were initially dissolved in dimethyl sulfoxide (DMSO) and diluted with medium. In those cases the control injections contained the same concentration of DMSO. Tumor size was measured with a caliper three times per week. Tumor volume was calculated by the formula: Volume(cc)=3.14×(length)×(width)^2/6 At autopsy tumors were removed and weighed. Tumor inhibition was calculated on both weight and measurement basis. In each Table, an IC50 value of “0” represents no detectable anti-cancer activity for a drug in a given cell line and “Stim.” indicates the observation of a stimulatory activity on the growth of the cancer cell line.

NSCLC strain A-549 = assay: MTT assay for cell survival, NSCLC A-549 in vitro; type: cell-based, human; conditions: ED50 for killing of NSCLC strain A-549 in vitro, 4 days
[1] = system: cultured human cancer cell lines; assay: MTT assay for cell survival, cell line not stated; type: cell-based; conditions: 4 days, read-out: concentration causing 50% cell death
SHP-77 SCLC cells = assay: Inhibition of SHP-77 tumor growth in vivo in nude mice; parameters: species or system athymic nude mice; conditions: 5 mg/kg/every second day or 10 mg/kg/every fourth day
Experimental: as §1

implanted tumors = assay: In vivo anti-cancer activity after oral administration; parameters: species or system nude mice

Compound | IC50 (SCLC strain SHP-77; read-out: SHP-77 In vitro IC50) [µM] | PC3 In vivo % inhib. (PC3 PC cells) | A-549 In vivo % inhib. (A549 NSCLC cells) | IC50 (SCLC strain SHP-77; read-out: SCLC SHP-77 IC50) [µM] | other results
CC1(C)CC(NC(=O)C(Cc2ccc(OCc3c(Cl)cccc3Cl)cc2)NC(=O)C(c2ccccc2)C2CCCCC2)CC(C)(C)N1 (single isomer, unassigned) [M-1124#1, Chpa-OC2Y-Atmp] | 1.7 | Stim | 50% | – | –
CCCCCCC(O)CC=CCCCCCCCC(=O)NC(Cc1ccc(OCc2c(Cl)cccc2Cl)cc1)C(=O)NC1CC(C)(C)NC(C)(C)C1 (stereo not shown) [Analog M-1128, Rio-OC2Y-Atmp] | 1.6 | 44% | 48% | – | –
CC1(C)CC(NC(=O)C(Cc2ccc(-c3ccccc3)cc2)NC(=O)C=Cc2c(F)c(F)c(F)c(F)c2F)CC(C)(C)N1 (stereo not shown) [Analog M-1174, F5c-Bip-Atmp] | 3.7 | 37% | 57% | – | –
O=C(C=Cc1c(F)c(F)c(F)c(F)c1F)NC(Cc1ccc(I)cc1)C(=O)NC1CCN(Cc2ccccc2)CC1 (stereo not shown) [Analog M-1180, F5c-PIF-Abzp] | 3.2 | 53% | 23% | – | –
O=C(NC(Cc1ccc2ccccc2c1)C(=O)N(Cc1ccccn1)Cc1ccccn1)C(c1ccc(Cl)cc1)c1ccc(Cl)cc1 (stereo not shown) [Analog M-1214, Bcpa-Nal-Dpic] | 7.3 | 37% | 24% | – | –
O=C(C=Cc1c(F)c(F)c(F)c(F)c1F)NC(Cc1ccc2ccccc2c1)C(=O)N1CCN(c2ccccn2)CC1 (stereo not shown) [Analog M-1216, F5c-Nal-Pypz] | > 60 | 22% | 32% | – | –
O=C(NC(Cc1ccc2ccccc2c1)C(=O)N1CCN(c2ccccn2)CC1)C(c1ccc(Cl)cc1)c1ccc(Cl)cc1 (stereo not shown) [Analog M-1242, Bcpa-Nal-Pypz] | > 60 | 36% | 19% | – | –
CC1(C)CC(NC(=O)C(Cc2ccc(OCc3c(Cl)cccc3Cl)cc2)NC(=O)c2ccccn2)CC(C)(C)N1 (stereo not shown) [Analog M-1350, Pic-OC2Y-Atmp] | – | – | 36% | 6.1 | –
CC1(C)CC(NC(=O)[C@H](Cc2ccc(C#N)cc2)NC(=O)c2ccccn2)CC(C)(C)N1 [Analog M-1352, Pic-PCNF-Atmp] | – | – | 21% | > 60 | –
CC1(C)CC(NC(=O)C(Cc2ccc(OCc3c(Cl)cccc3Cl)cc2)NC(=O)Cc2c(F)c(F)c(F)c(F)c2F)CC(C)(C)N1 (stereo not shown) [Analog M-1356, F5pa-OC2Y-Atmp] | – | – | 0 | 4.4 | –
COc1ccc(C=CC(=O)NC(Cc2ccc(OCc3c(Cl)cccc3Cl)cc2)C(=O)NC2CC(C)(C)NC(C)(C)C2)cc1OC (stereo not shown) [Analog M-1362, 3,4Dmc-OC2Y-Atmp] | – | – | 21% | 4 | –
CC1(C)CC(NC(=O)C(Cc2ccc(OCc3c(Cl)cccc3Cl)cc2)NC(=O)CCCc2c[nH]c3ccccc23)CC(C)(C)N1 (stereo not shown) [Analog M-1364, 3Ibu-OC2Y-Atmp] | – | 9% | 50% | 7.2 | –
CC(C)=CCCC(C)CC(=O)NC(Cc1ccc(OCc2c(Cl)cccc2Cl)cc1)C(=O)NC1CC(C)(C)NC(C)(C)C1 (stereo not shown) [Analog M-1366, Dmo-OC2Y-Atmp] | – | – | 14% | 3.8 | –
CC1(C)CC(NC(=O)C(Cc2ccc(OCc3c(Cl)cccc3Cl)cc2)NC(=O)c2cnccn2)CC(C)(C)N1 (stereo not shown) [Analog M-1368, 2Pyz-OC2Y-Atmp] | – | Stim. | 47% | 3.2 | –
CC1(C)CC(NC(=O)C(Cc2ccc(OCc3c(Cl)cccc3Cl)cc2)NC(=O)c2ccc(B(O)O)cc2)CC(C)(C)N1 (stereo not shown) [Analog M-1372, Bbz-OC2Y-Atmp] | – | – | 64% | > 60 | –
COc1ccc2c(c1)c(CC(=O)NC(Cc1ccc(OCc3c(Cl)cccc3Cl)cc1)C(=O)NC1CC(C)(C)NC(C)(C)C1)c(C)n2C(=O)c1ccc(Cl)cc1 (stereo not shown) [Analog M-1376, Indo-OC2Y-Atmp] | – | 44% | 18% | 1.5 | IC50 (NSCLC strain A-549): 1.8 µM
CC(=O)Oc1ccccc1C(=O)NC(Cc1ccc(OCc2c(Cl)cccc2Cl)cc1)C(=O)NC1CC(C)(C)NC(C)(C)C1 (stereo not shown) [Analog M-1378, Aspr-OC2Y-Atmp] | – | Stim. | 9% | 2.9 | IC50 (NSCLC strain A-549): 3.5 µM
CC1(C)CC(NC(=O)C(Cc2ccc(OCc3c(Cl)cccc3Cl)cc2)NC(=O)Cc2ccccc2Nc2c(Cl)cccc2Cl)CC(C)(C)N1 (stereo not shown) [Analog M-1382, Dfc-OC2Y-Atmp] | – | – | 46% | 2.9 | –
CC1(C)CC(NC(=O)C(Cc2ccc(OCc3c(Cl)cccc3Cl)cc2)NC(=O)CCCc2ccc(N(CCCl)CCCl)cc2)CC(C)(C)N1 (stereo not shown) [Analog M-1384, Chl-OC2Y-Atmp] | – | Stim. | 46% | 1.8 | IC50 (NSCLC strain A-549): 1.9 µM
CC1(C)CC(NC(=O)C(Cc2ccc(OCc3c(Cl)cccc3Cl)cc2)NC(=O)C=Cc2cc(F)cc(F)c2F)CC(C)(C)N1 (stereo not shown) [Analog M-1388, F3c-OC2Y-Atmp] | – | Stim. | 21% | 1.6 | –
CC(C(=O)NC(Cc1ccc(OCc2c(Cl)cccc2Cl)cc1)C(=O)NC1CC(C)(C)NC(C)(C)C1)c1cccc(C(=O)c2ccccc2)c1 (stereo not shown) [Analog M-1392, Ktpf-OC2Y-Atmp] | – | 18% | 28% | 2.9 | –
CC1(C)CC(NC(=O)C(Cc2ccc(OCc3c(Cl)cccc3Cl)cc2)NC(=O)C2CCn3c(C(=O)c4ccccc4)ccc32)CC(C)(C)N1 (stereo not shown) [Analog M-1394, Ktlc-OC2Y-Atmp] | – | Stim. | 68% | 2.9 | IC50 (NSCLC strain A-549): 4.9 µM
Pentafluorocinnamoyl-O-(2,6-dichlorobenzyl)tyrosine-4-amino-2,2,6,6-tetramethylpiperidine [Analog M570, reference compound] | – | – | – | – | IC50 [1]: 0.15 µM; inhibition of growth of the SCLC line SHP-77 (SHP-77 SCLC cells): 85%; in vivo anti-cancer activity after oral administration (implanted tumors): active; inhibition of PC cell line PC3 tumors (PC3 PC cells; nude mice, 5 mg/kg/every second day or 10 mg/kg/every fourth day): 65%
